Where two headings read alike, the source gives them in different places.
Test system: human umbilical vein endothelial cells (HUVECs)
Experiment: Tube formation assay of HUVEC on Matrigel
Format: cell-based
Conditions: for formation of microvascular network of HUVEC (pictures): FIGS. 6-9; for inhibition at 50 µM: Homo sapiens, read-out: Percent Inhibition
Method: In order to do the tube formation assay, blood vessel endothelial cells, human umbilical vein endothelial cells (HUVECs), were isolated from freshly obtained cords after cesarean section according to Grant's method (Grants D S, et al., Cell, 58, pp933-943, 1989). They were identified by immunocytochemial staining with anti-Factor VIII antibody. HUVECs grown with Matrigel (BD Bioscience, Bedford, Mass., USA), were treated with the above Horse chestnut extract of the Example 1, and further incubated at 37° C. for 8-16 hrs. As a control, above procedure was repeated without Horse chestnut extract.
In order to identify the component responsible for anti-aniogenic acvity of Horse chestnut extract, components identified as in EXAMPLE 2, were subjected to the tube formation assay as described above. Since those chemicals are not soluble in water, they were dissolved in dimethyl sulfoxide (DMSO). In order to exclude the effect of solvent, HUVECs treated with the same amount of DMSO were used as a control. FIG. 5 is a picture of the 1% DMSO-treated HUVEC control, and FIGS. 6-9 are pictures showing the effect of individual components of the Horse chestnut on tube formation. […] Tubular network was disconnected by treatment with 50 μM of quercitrin, and esculetin.
The area of the tube was determined by image analysis program Image-Pro Plus® (Media Cybernetics, USA), and the results were summarized in Tables 1 and 2. […]

[1] = HUVEC, 50 μM, vs 1% DMSO control
[2] = HUVEC tube formation, 50 μM, vs 1% DMSO control

Compound | formation of microvascular network of HUVEC (pictures) (50 μM) | Area of the Tube (%) [1] | inhibition at 50 µM [2] | inhibition at 50 µM (HUVEC) | Percent Inhibition [2]
O=c1ccc2cc(O)c(O)cc2o1 [Esculetin, esculetin] | disconnected | 17% | 83% | – | –
O=c1ccc2cc(O[C@@H]3O[C@H](CO)[C@@H](O)[C@H](O)[C@H]3O)c(O)cc2o1 [Esculin, esculin] | less than that by esculetin | 85% | – | 15% | –
aescin | completely inhibited | 0% | – | – | 100
C[C@@H]1O[C@@H](Oc2c(-c3ccc(O)c(O)c3)oc3cc(O)cc(O)c3c2=O)[C@H](O)[C@H](O)[C@H]1O [Quercitrin, quercitrin] | – | 36% | – | 64% | –

Source: patent US9962331B2, “Composition containing horse chestnut extract” (priority 2001, dated 2018)
